Here are results for four substances from patent publication US6660276B1, “Peptides recognized by melanoma-specific cytotoxic lymphocytes, and uses therefor” (The University of Virginia Patent Foundation, priority 1994, dated 2003).

Common to all, as to format: cell-based, human
Test [1] concerns melanoma specific CTL VMM5. The test can be described thus: Reconstitution of melanoma-specific CTL epitope on peptide-pulsed 51Cr-labelled T2 cells, chromium release assay, VMM5 CTL. As to conditions: for effect on epitope reconstitution: concentrations up to 10 nM. On the procedure: (§1) Cell-mediated killing was determined in vitro using a 4-h chromium release assay. 51Cr-labeled target cells were plated at 2×10^3 cells/well in triplicate on 96-well V-bottom plates (Costar, Cambridge, Mass.) with varying numbers of effector cells in a final volume of 250 microl. Wells containing either culture medium and target cells only or 1 M HCl and target cells served as background 51Cr release controls and total release controls, respectively. The plates were centrifuged at 100×g for 3 min and incubated at 37° C. in 5% CO2 for 4 h. The plates were again centrifuged, and 0.20 ml of medium from each well was removed for counting in a gamma counter. The cytotoxic index was calculated as: [formula] […] Effector cells were added in 100 microl assay medium to give an E:T ratio of 10:1, and were incubated at 37° C. The remainder of the assay is performed as in standard chromium release assays described above. Wells containing peptide and target cells but no CTL were used as controls to rule out toxicity of the peptides themselves. […] HLA-A2.1 molecules were immunoaffinity purified from detergent lysates of the human melanoma cell line DM6. The associated peptides were released by acid extraction, separated from HLA-A2.1 and antibody by filtration, and fractionated by multiple stages of HPLC. […] L. Slingluff Jr., et al, J. Immunol. (1993) […], 2955, by using a gradient of acetonitrile/0.085% trifluoroacetic acid (TFA) in 0.1% TFA with acetonitrile increasing from 0 to 9% (0-5 min), 9 to 36%(5-55min), 36 to 60% (55-62min) (v/v), collecting one-minute fractions. In FIG. 8B Fractions 2 and 3 from the separation shown in panel A were pooled and rechromatographed with a 55 minute gradient of 0 to 30% acetonitrile/0.1% heptafluorobutyric acid (HFBA) in 0.1% HFBA, collecting one-minute fractions. For both panels, peptide fractions were incubated for 2-3 h with 2×10^3 51Cr-labelled T2 cells in 150 ll assay media per well in 96-well plates. […]

Test [2] has as its system melanoma specific CTL DM204-13. The test can be described thus: Reconstitution of melanoma-specific CTL epitope on peptide-pulsed 51Cr-labelled T2 cells, chromium release assay, DM204-13 CTL. To be noted: for effect on epitope reconstitution: concentrations up to 10 nM. On the procedure: as §1
In test [3] the test system is HLA-A2.1 restricted melanoma specific CTL lines (VMM5, VMM6, DM169-13, DM204-13, LD1). The test can be described thus: Chromium release assay, peptide-preincubated T2 cells, panel of HLA-A2.1 restricted melanoma specific CTL lines from different patients. As to conditions: for activity in reconstituting recognition by CTL lines from 3 additional patients: at equal or higher concentrations than 946 (0.1-1 nM). On the procedure: Cell-mediated killing was determined in vitro using a 4-h chromium release assay. 51Cr-labeled target cells were plated at 2×10^3 cells/well in triplicate on 96-well V-bottom plates (Costar, Cambridge, Mass.) with varying numbers of effector cells in a final volume of 250 microl. Wells containing either culture medium and target cells only or 1 M HCl and target cells served as background 51Cr release controls and total release controls, respectively. The plates were centrifuged at 100×g for 3 min and incubated at 37° C. in 5% CO2 for 4 h. The plates were again centrifuged, and 0.20 ml of medium from each well was removed for counting in a gamma counter. The cytotoxic index was calculated as: [formula] […] Effector cells were added in 100 microl assay medium to give an E:T ratio of 10:1, and were incubated at 37° C. The remainder of the assay is performed as in standard chromium release assays described above. Wells containing peptide and target cells but no CTL were used as controls to rule out toxicity of the peptides themselves. […] To determine whether peptide 946 was a generally relevant epitope for HLA-A2.1 restricted melanoma specific CTL, lines from 3 additional patients were tested. CTL lines VMM5 and VMM6 were generated by stimulation with autologous tumor. VMM5 CTL were maintained on allogeneic A2.1^+ melanoma DM6 after specificity was obtained, C. L. Slingluff Jr. et al., J. Immunol. 150, 2955 (1993). DM169-13 and DM204-13 CTL were generated by stimulation with allogeneic A2.1^+ melanoma DM13, N. J. Crowley et al., J. Immunol. 146, 1692 (1991), then maintained with DM6. LD1 CTL were stimulated on a rotating schedule of stimulating logeneic A2.1^+ melanomas DM6, DM13, and DM93. DM93 is an HLA-A2.1^+ melanoma used as a positive control. […] T2 cells were preincubated with the peptides whose (M+H)^+ values are indicated in the legend, FIG. 12. […] All other peptides were used at a concentration of 10 nM except 250 nM for DM169 and 0.1 nM for LD1. Asterisks (*) mark peptides not evaluated. The sequences of the peptides 864 (Seq. ID No. 88), 946 (Seq. ID No. 39), 1046 (Seq. ID No. 89) are described in the text. Peptide 1030 has the sequence […] (SEQ ID NO:90), (related to peptide from tyrosinase. molecule). […] An additional peptide Try […] (SEQ ID NO 96), which originates from tyrosinase and had been identified by Boon and colleagues as an HLA-A2.1 restricted melanoma specific T cell epitope, was also evaluated. None of 4 CTL lines recognized cells incubated with this peptide.

Where [4] appears, read: T2 cells, synthetic peptide with equimolar Leu/Ile at X, read-out: half-maximal reconstitution of the epitope.

pEC50: −log10 of the molar value. Where no end group is shown, it is not given here.

“Ala Xaa Tyr Asp Ala Thr Tyr Glu Thr [Peptide 1046]”: the “effect on epitope reconstitution” value in test [1] and in test [2] was “no effect” in each case. Further, the “activity in reconstituting recognition by CTL lines from 3 additional patients” value in test [3] is “neither 864 nor 1046 had any detectable activity”.

With SMAPGNTSV [Peptide 864], the “effect on epitope reconstitution” value in test [1] and in test [2] was “no effect” each time. Moreover, the “activity in reconstituting recognition by CTL lines from 3 additional patients” value in test [3] is given as “neither 864 nor 1046 had any detectable activity”.

On to “Try Met Asn Gly Thr Met Ser Gln Val (YMNGTMSQV) [SEQ ID NO 96, originates from tyrosinase, reference compound]”, for which, in test [3] (4 CTL lines tested), the “CTL lines that recognized cells incubated with the peptide” value is on record as “None of 4”.

As for “Tyr Xaa Glu Pro Gly Pro Val Thr Ala [Peptide 946]”, the pEC50 in test [1] (setting [4]) was 11.00 to 12.00; in test [2] (setting [4]), 11.00 to 12.00; in test [3] (dose response curves for two of the 3 additional CTL lines, read-out: half-maximal lysis), 11.00 to 12.00. The “patients / CTL lines whose T-cells recognized the HLA-A2.1-associated peptide” value in test [3] (five melanoma-specific CTL lines from five patients) was 5 out of 5 and all five lines recognize. Moreover, the “reconstitution of recognition by CTL lines from 3 additional patients” value in test [3] (peptide at 0.1-1 nM, T2 cells, FIG. 12) is reported as “reconstituted recognition”.
